From ChEMBL document CHEMBL1136035, “New Rev-transport inhibitor with anti-HIV activity from Valerianae Radix” (2002) come the findings set out here.

The assay relates to MT4. Briefly: Antiviral activity was determined by measurement of HIV-p24 antigen production in the supernatants of the infected MT-4 cell cultures with acommercially available HIV-antigen kit. Format: functional, Homo sapiens.

`CC(=O)OCC1=CO[C@@H](OC(=O)CC(C)C)[C@H]2C1=C[C@H](OC(=O)CC(C)C)[C@]21CO1` [VALTRATE]: the Inhibition came out at 44%.
